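Method: 48-hour compound exposure of cells in 96-well plates, five concentrations, linear interpolation of endpoints. GI50 = concentration required for 50% inhibition of growth.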 The source made the active and inactive calls. Rule as the data show it: active = GI50 up to about 1.1 µM and inactive = higher.
How the values were obtained:
Experiment in all cases: NCI anticancer screen, dose series, 48 h
[1] = system: 786-0
[2] = system: CAKI-1
[3] = system: EKVX
[4] = system: HCC 2998
[5] = system: HCT-116
[6] = system: HCT-15
[7] = system: HOP-62
[8] = system: KM12
[9] = system: LOX IMVI
[10] = system: MDA-N
[11] = system: RPMI-8226
[12] = system: SK-OV-3
[13] = system: SN12C
[14] = system: U-251
[15] = system: UACC-257
[16] = system: COLO 205
[17] = system: UO-31
[18] = system: Malme-3M
[19] = system: NCI-H226
[20] = system: NCI-H522

In the case of `N[C@H]1CCC[C@@H](O)C1O` (some centres undefined), the GI50 [1] is reported as > 100 µM (inactive), the GI50 [2] is reported as > 100 µM (inactive) and the GI50 [3] is reported as > 100 µM (inactive). The GI50 [4] was > 100 µM (inactive), the GI50 [5] was > 100 µM (inactive) and the GI50 [6] was > 100 µM. For the same compound, the GI50 [7] was > 100 µM (inactive), the GI50 [8] was > 100 µM (inactive) and the GI50 [9] was > 100 µM (inactive). For the same compound, the GI50 [10] was > 100 µM (inactive), the GI50 [11] was > 100 µM (inactive) and the GI50 [12] was > 100 µM (inactive). For the same compound, the GI50 [13] was > 100 µM (inactive), the GI50 [14] was > 100 µM (inactive) and the GI50 [15] was > 100 µM (inactive).

For `BrCC[P+](c1ccccc1)(c1ccccc1)c1ccccc1`, the GI50 [1] was 2.75 µM (inactive), the GI50 [2] was 4.37 µM (inactive) and the GI50 [16] was 2.87 µM (inactive). For the same compound, the GI50 [3] was 0.792 µM (active), the GI50 [4] was 9.42 µM (inactive) and the GI50 [5] was 2.28 µM (inactive). The GI50 [6] was 32.7 µM, the GI50 [7] was 6.68 µM (inactive) and the GI50 [8] was 4.8 µM (inactive). For the same compound, the GI50 [9] was 4.23 µM (inactive), the GI50 [10] was 2.61 µM (inactive) and the GI50 [11] was 0.948 µM (active). For the same compound, the GI50 [12] was 24.5 µM (inactive), the GI50 [13] was 1.98 µM (inactive) and the GI50 [14] was 3.87 µM (inactive). For the same compound, the GI50 [15] was 3.7 µM (inactive) and the GI50 [17] was 4.75 µM (inactive).

With `CC(C)(C)OC(=O)CCC1NC(=O)[C@@H]2Cc3c([nH]c4ccccc34)C(C3CCCCC3)N2C1=O` (some centres undefined) the GI50 [1] was 35.3 µM (inactive), the GI50 [2] was 37.1 µM (inactive) and the GI50 [16] was 17.9 µM (inactive). For the same compound, the GI50 [3] was 41.7 µM (inactive), the GI50 [5] was 27 µM (inactive) and the GI50 [6] was 34.6 µM. The GI50 [7] was 35.6 µM (inactive), the GI50 [8] was 24.9 µM (inactive) and the GI50 [9] was 26.4 µM (inactive). The GI50 [10] was 24.5 µM (inactive), the GI50 [18] was 29.1 µM (inactive) and the GI50 [19] was 36.2 µM (inactive). For the same compound, the GI50 [20] was 30.3 µM (inactive), the GI50 [11] was 16.4 µM (inactive) and the GI50 [12] was 44.6 µM (inactive). The GI50 [13] was 22.4 µM (inactive), the GI50 [14] was 27 µM (inactive) and the GI50 [15] was 29.4 µM (inactive). For the same compound, the GI50 [17] was 41.5 µM (inactive).

In the case of `CCCC(CCC(=O)O)(CCC(=O)O)[N+](=O)[O-]`, the GI50 [1] is reported as > 100 µM (inactive), the GI50 [2] is reported as > 100 µM (inactive) and the GI50 [16] is reported as > 100 µM (inactive). For the same compound, the GI50 [3] was > 100 µM (inactive), the GI50 [5] was > 100 µM (inactive) and the GI50 [6] was > 100 µM. For the same compound, the GI50 [8] was > 100 µM (inactive), the GI50 [10] was > 100 µM (inactive) and the GI50 [18] was > 100 µM (inactive). For the same compound, the GI50 [19] was > 100 µM (inactive), the GI50 [20] was > 100 µM (inactive) and the GI50 [11] was > 100 µM (inactive). The GI50 [12] was > 100 µM (inactive), the GI50 [13] was > 100 µM (inactive) and the GI50 [14] was > 100 µM (inactive). The GI50 [15] was > 100 µM (inactive) and the GI50 [17] was > 100 µM (inactive).

`COc1cc(S(=O)(=O)Nc2ccc(-c3csc(N4C(=O)C(C)SC4c4ccccc4)n3)cc2)ccc1Cl` (centres undefined) was tested, and the GI50 [1] was 20 µM (inactive), the GI50 [2] was > 100 µM (inactive) and the GI50 [16] was 27.2 µM (inactive). For the same compound, the GI50 [3] was 7.52 µM (inactive), the GI50 [5] was 34.8 µM (inactive) and the GI50 [6] was > 100 µM. The GI50 [8] was 0.082 µM (active), the GI50 [9] was 10.1 µM (inactive) and the GI50 [10] was 19.5 µM (inactive). The GI50 [18] was 80.4 µM (inactive), the GI50 [19] was 0.0853 µM (active) and the GI50 [20] was 33.8 µM (inactive). The GI50 [11] was 38.4 µM (inactive), the GI50 [13] was 94.2 µM (inactive) and the GI50 [15] was 37.4 µM (inactive). For the same compound, the GI50 [17] was > 100 µM (inactive).

For `CSc1ccc(/C=C2\N=C(c3ccccc3)N(c3nc4cc(C)c(C)cc4s3)C2=O)cc1`, the GI50 [1] was 21.9 µM (inactive), the GI50 [2] was 53 µM (inactive) and the GI50 [16] was 35.2 µM (inactive). For the same compound, the GI50 [3] was 24.9 µM (inactive), the GI50 [4] was 32.1 µM (inactive) and the GI50 [5] was 18.3 µM (inactive). For the same compound, the GI50 [6] was 40.7 µM, the GI50 [7] was 23.6 µM (inactive) and the GI50 [8] was 27.4 µM (inactive). The GI50 [9] was 19.8 µM (inactive), the GI50 [10] was 13.6 µM (inactive) and the GI50 [11] was 52.1 µM (inactive). For the same compound, the GI50 [12] was 46.5 µM (inactive), the GI50 [13] was 27 µM (inactive) and the GI50 [14] was 19.2 µM (inactive). The GI50 [15] was 43.3 µM (inactive) and the GI50 [17] was 28.9 µM (inactive).

`COC(=O)C(NC(=O)c1ccccc1)c1ccco1` (centres undefined) was tested, and the GI50 [1] was > 100 µM (inactive), the GI50 [3] was > 100 µM (inactive) and the GI50 [4] was > 100 µM (inactive). The GI50 [5] was > 100 µM (inactive), the GI50 [6] was > 100 µM and the GI50 [7] was > 100 µM (inactive). The GI50 [8] was > 100 µM (inactive), the GI50 [10] was > 100 µM (inactive) and the GI50 [18] was > 100 µM (inactive). The GI50 [19] was > 100 µM (inactive), the GI50 [11] was > 100 µM (inactive) and the GI50 [12] was > 100 µM (inactive). For the same compound, the GI50 [13] was > 100 µM (inactive), the GI50 [14] was > 100 µM (inactive) and the GI50 [15] was > 100 µM (inactive). For the same compound, the GI50 [17] was > 100 µM (inactive).

For `Nc1ccccc1OCc1cc(=O)c(OCc2ccccc2)co1`, the GI50 [1] was 23.8 µM (inactive), the GI50 [2] was 8.65 µM (inactive) and the GI50 [16] was 12.6 µM (inactive). For the same compound, the GI50 [3] was 24.1 µM (inactive), the GI50 [5] was 64.7 µM (inactive) and the GI50 [6] was 24.2 µM. The GI50 [7] was 33 µM (inactive), the GI50 [8] was 6.47 µM (inactive) and the GI50 [9] was 27.7 µM (inactive). The GI50 [10] was 19.1 µM (inactive), the GI50 [18] was 34.6 µM (inactive) and the GI50 [11] was 15 µM (inactive). For the same compound, the GI50 [12] was 23.6 µM (inactive), the GI50 [13] was 0.214 µM (active) and the GI50 [14] was 28.4 µM (inactive). For the same compound, the GI50 [15] was 14.3 µM (inactive).

`C[N+]1(C)CCC(C#N)(c2ccccc2)CC1` was tested, and the GI50 [1] was > 100 µM (inactive), the GI50 [2] was > 100 µM (inactive) and the GI50 [16] was > 100 µM (inactive). The GI50 [3] was > 100 µM (inactive), the GI50 [4] was > 100 µM (inactive) and the GI50 [5] was > 100 µM (inactive). The GI50 [6] was > 100 µM, the GI50 [7] was > 100 µM (inactive) and the GI50 [8] was > 100 µM (inactive). The GI50 [10] was > 100 µM (inactive), the GI50 [18] was > 100 µM (inactive) and the GI50 [11] was > 100 µM (inactive). The GI50 [12] was > 100 µM (inactive), the GI50 [14] was > 100 µM (inactive) and the GI50 [15] was > 100 µM (inactive). For the same compound, the GI50 [17] was > 100 µM (inactive).

Reference: ChEMBL document CHEMBL1201862, “PubChem BioAssay data set” (2004)
